According to US7482328B2, “Antimicrobial polypeptide and utilization thereof” (Toagosei Co., Ltd., priority 2002, dated 2009):
Residues, ends and D or L forms follow the SMILES beside them. No end group written: not given here.

Legend:
Type in all cases: cell-based
E. coli = tested on: E. coli
Procedure: (§1) Regarding the antimicrobial polypeptide of the present invention (samples 1 to 33) and the polypeptides of comparative samples 1 to 3, the antimicrobial activities (minimum inhibitory concentration: MIC) with respect to gram-negative bacteria (E. coli) and gram-positive bacteria (S. aureus) were determined by a liquid medium dilution technique using a 96-well microplate.
(§2) More specifically, liquid bouillon media (“NUTRIENT BROTH Dehydraged” manufactured by DIFCO) in a polypeptide concentration of 500, 250, 125, 62.5, 31.3, 15.6, 7.8, 3.9, 1.9, 1.0 and 0.5 μM were prepared, and filled in a 96-well microplate. On the other hand, bacteria suspension (about 2×10^6 cells/mL) that had been stationary cultured at 37° C. for 18 hours with LB Broth, Lennox (manufactured by DIFCO) were inoculated to each well of the 96-well microplate in an equal amount to that of the pharmaceutical solution (the above-described polypeptide-containing bouillon medium). After inoculation, culture was started in an incubator at 37° C., and it was examined based on the turbidity after 24 hours and 48 hours whether or not bacteria are present. The minimum of the polypeptide concentrations in which no increase in the turbidity caused by bacteria at the time of measurement was observed was defined as MIC in this example.
(§3) The unit of MIC in Table 2 is μM. […]

S. aureus = tested on: S. aureus
Procedure: as §1, §2, §3

[1] = tested on: gram-negative bacteria (E. coli) and gram-positive bacteria (S. aureus); assay: antimicrobial test of Example 2, results summed up in words; conditions: summary of Table 2, E. coli and S. aureus
Procedure: as §1, §2

[2] = tested on: Escherichia coli O157:H7 sakai; conditions: O157:H7, 24 h
Procedure: as §2
Next, regarding the polypeptides of the samples 16, 17, 10, 14, and 20, the same antimicrobial test (MIC measurement test) as in Example 2 was performed with respect to various bacteria (see Table 3), and the antimicrobial spectra of these polypeptides were evaluated.

Compound | antimicrobial activity (MIC) E. coli after 24h (E. coli) | antimicrobial activity (MIC) E. coli after 48h (E. coli) | antimicrobial activity (MIC) S. aureus after 24h (S. aureus) | antimicrobial activity (MIC) S. aureus after 48h (S. aureus) | antimicrobial activities (in words) [1] | antimicrobial activity after 24 hours: MIC [2]
PPRKKRTVV [sample 4, PPRKKRTVV] | 250.0 µM | >500 µM | 125.0 µM | 125.0 µM | – | –
RKKKRKVKRKKKR [sample 29, RKKKRKVKRKKKR] | 1.0 µM | 1.0 µM | 3.9 µM | 7.8 µM | particularly high antimicrobial activities | –
PRRRK-NH2 [sample 23, PRRRK] | 31.3 µM | 31.3 µM | 7.8 µM | 15.6 µM | – | –
RKKKRKVVKRKKKR [sample 28, RKKKRKVVKRKKKR] | 1.0 µM | 1.0 µM | 3.9 µM | 7.8 µM | particularly high antimicrobial activities | –
LALKLAGLDI [compound 3, LALKLAGLDI, reference compound] | >500 µM | >500 µM | >500 µM | >500 µM | – | –
CC(C)[C@H](NC(=O)[C@H](CCCCN)NC(=O)[C@H](CCCNC(=N)N)NC(=O)[C@H](CCCCN)NC(=O)[C@H](CCCCN)NC(=O)[C@H](CCCCN)NC(=O)[C@@H]1CCCN1)C(=O)O [sample 1, PKKKRKV] | 62.5 µM | >500 µM | 62.5 µM | 125.0 µM | – | –
RIRKKLR [sample 3, RIRKKLR] | 62.5 µM | 62.5 µM | 62.5 µM | 62.5 µM | – | –
PRRRK [sample 6, PRRRK] | >500 µM | >500 µM | 250.0 µM | 500.0 µM | – | –
RQARRNRRRRWRLPPLERLTLD [sample 10] | – | – | – | – | high antimicrobial activities | –
N=C(N)NCCC[C@H](NC(=O)[C@H](CCCNC(=N)N)NC(=O)[C@H](CCCCN)NC(=O)[C@@H](N)CCCNC(=N)N)C(=O)O [comparative sample 1, RKRR, reference compound] (H-RKRR-OH; N-terminus and C-terminus assumed) | >500 µM | >500 µM | >500 µM | >500 µM | – | –
PRRRKPRRRK [sample 18, PRRRKPRRRK] | 3.9 µM | 3.9 µM | 7.8 µM | 7.8 µM | – | –
LPPLERLTLRKKKRKV [sample 13, LPPLERLTLRKKKRKV] | 15.6 µM | 15.6 µM | 3.9 µM | 3.9 µM | – | –
RKKKRKVRKKKRKV-NH2 [sample 25, RKKKRKVRKKKRKV-CONH2] | 3.9 µM | 3.9 µM | 1.9 µM | 1.9 µM | – | –
RKKKRKVRKKKRKVRKKKRKVRKKKRKV [sample 22] | 1.9 µM | 1.9 µM | 1.0 µM | 1.0 µM | – | –
N=C(N)NCCC[C@H](NC(=O)[C@H](CCCNC(=N)N)NC(=O)[C@H](CCCNC(=N)N)NC(=O)[C@H](CCC(N)=O)NC(=O)[C@H](CCCNC(=N)N)NC(=O)[C@H](CCCNC(=N)N)NC(=O)[C@H](CCCCN)NC(=O)[C@H](CCCCN)NC(=O)[C@@H](N)CCCNC(=N)N)C(=O)O [sample 5, RKKRRQRRR] | – | – | – | – | particularly high antimicrobial activities | –
LKRKLQR [sample 27, LKRKLQR] | 500.0 µM | >500 µM | 125.0 µM | 125.0 µM | – | –

Compound | antimicrobial activity (MIC) E. coli after 24h (E. coli) | antimicrobial activity (MIC) E. coli after 48h (E. coli) | antimicrobial activity (MIC) S. aureus after 24h (S. aureus) | antimicrobial activity (MIC) S. aureus after 48h (S. aureus) | antimicrobial activities (in words) [1] | antimicrobial activity after 24 hours: MIC [2]
RKKKRKVRKKKRKVRKKKRKV [sample 21] | 1.9 µM | 1.9 µM | 0.5 µM | 0.5 µM | – | –
PKKKRKVLPPLERLTLPKKKRKV [sample 11] | 3.9 µM | 3.9 µM | 1.9 µM | 1.9 µM | – | –
RQARRNRRRRWR [sample 2, RQARRNRRRRWR] | – | – | – | – | particularly high antimicrobial activities | –
LALKLAGLDIRKKKRKV [sample 15, LALKLAGLDIRKKKRKV] | 3.9 µM | 3.9 µM | 1.9 µM | 3.9 µM | high antimicrobial activities | –
PKKKRKVPKKKRKV [sample 16, PKKKRKVPKKKRKV] | – | – | – | – | – | 17.9 µM
RKKKRKVLPPLERLTL [sample 12, RKKKRKVLPPLERLTL] | 15.6 µM | 15.6 µM | 3.9 µM | 3.9 µM | – | –
LPPLERLTLPKKKRKV [sample 9, LPPLERLTLPKKKRKV] | 31.3 µM | 31.3 µM | 3.9 µM | 3.9 µM | – | –
PKKKRKVPPRKKRTVV [sample 19, PKKKRKVPPRKKRTVV] | 3.9 µM | 3.9 µM | 7.8 µM | 7.8 µM | – | –
LPPLERLTL [comparative sample 2, LPPLERLTL, reference compound] | >500 µM | >500 µM | >500 µM | >500 µM | – | –
LKRKLQRLKRKLQR [sample 30, LKRKLQRLKRKLQR] | 3.9 µM | 3.9 µM | 3.9 µM | 3.9 µM | – | –
RKKKRKV-NH2 [sample 24, RKKKRKV-CONH2] | 3.9 µM | 15.6 µM | 1.0 µM | 1.0 µM | higher antimicrobial activities | –
PKKKRKVLPPLERLTL [sample 8, PKKKRKVLPPLERLTL] | 31.3 µM | 31.3 µM | 3.9 µM | 3.9 µM | – | –
RKKKRKV-OH [sample 7, RKKKRKV] | 62.5 µM | 500.0 µM | 15.6 µM | 31.3 µM | – | –
PKKKRRV [sample 26, PKKKRRV] | 62.5 µM | 500.0 µM | 125.0 µM | 125.0 µM | – | –
MRKKKRKVRKKKRKV [sample 33, MRKKKRKVRKKKRKV] | 3.9 µM | 3.9 µM | 1.9 µM | 1.9 µM | – | –
PKKKRKVALGKLALGKL [sample 31, PKKKRKVALGKLALGKL] | 7.8 µM | 7.8 µM | 3.9 µM | 7.8 µM | – | –
